The results in this text go back to patent publication US11528908B2, “Acaricide and application thereof” (priority 2018, dated 2022).

Data set [1] has as its system adult citrus red mites (Panonychus citri Mcgregor). The data set is described as follows: Glass slide method, mortality of adult mites (Table 7). The data set is classed as in vivo. The procedure:
By using the glass slide method, the effects of the 1500-fold diluted solution and the 3000-fold diluted solution of the acaricide prepared in embodiment 3, the 1500-fold diluted solution of the ethoxy-modified trisiloxane, and the 1500-fold diluted solution of the solid sodium dioctyl sulfosuccinate prepared in embodiment 1 on the adult citrus red mites (Panonychus citri Mcgregor) were tested. Each treatment group had 50 citrus red mites, and the measurement was repeated 4 times, with water as a control.

For another data set, the system named is mites. The experiment in a line: Acaricidal effect of ethoxy-modified trisiloxane alone (statement in summary). The settings on record: content 0.667 g/L to 1.0 g/L.

Consider ethoxy-modified trisiloxane, for which the “Mortality after 10 minutes” value in data set [1] (1500× dilution, 10 minutes after spraying) came out at 15.42dD %. The “Mortality after 72 hours” value in data set [1] (1500× dilution, 72 hours after spraying) is recorded as 28.84dD %. For the same compound, in the data set with mites, the damage to plants result is “serious pesticide damage”. The “acaricidal rate for 72 hours” value in the data set on mites (high concentration) is “about 30%”.
Take `CCCCCCCCOC(=O)CC(C(=O)OCCCCCCCC)S(=O)(=O)O.[Na]` (stereo not drawn) [sodium dioctyl sulfosuccinate]: in data set [1] (in vivo), the “Mortality after 10 minutes” value is 20.35cC % and the “Mortality after 72 hours” value is 62.45cC %.
